Earlier results in US20230321241A1, “CANCER PEPTIDE VACCINE AND METHOD OF PREPARING THE SAME” (BrightPath Biotherapeutics Co., Ltd., priority 2020, published 2023).

Tested on: PD-L1-Positive Non-Small-Cell Lung Cancer
Conditions: pembrolizumab alone in similar subjects; cited from earlier work

## pembrolizumab: anti-PD-1 antibody (Merck & Co., Inc.)
  response rate: 45%
